≈ marks a conversion by molar mass, not a printed value. Starred links: 1 amine or outer side, 2 acyl side, 3 side chain; linkers in the order of their positions; H or OH if unused. Positions of bridges follow the written chain, without caps; N, C: chain ends. Residues, ends and D or L forms follow the SMILES beside them. *: point of attachment. C18 diacid = O=C(O)CCCCCCCCCCCCCCCCC(=O)*; γGlu = O=C(O)[C@H](CCC(=O)[*:2])N[*:1]; AEEA = NCCOCCOCC(=O)O
Experiment: Solubility of CNP compounds at pH 4.0 and pH 6.5
Type: physicochemical
Settings: 5 mM sodium acetate, 250 mM glycerol, pH 4.0, room temperature; read-out: Solubility at pH 4.0
Method: In order to assess the suitability of CNP compounds for a soluble liquid formulation, the solubility of CNP compounds in pharmaceutically relevant buffers were measured. Solubility at two different pH-levels (pH 4.0 and pH 6.5) was examined as pH is expected to affect solubility.
Preparation of pH 4.0 samples: The pH 4.0 samples of the CNP compounds were prepared by mixing freeze dried peptide with a pH 4.0 5 mM sodium acetate, 250 mM glycerol buffer at room temperature to a nominal concentration of at least 4000-5000 nmol/mL. The pH of the samples was measured and adjusted to pH 4.0 and the samples were allowed to equilibrate at room temperature until next day if not fully dissolved.
Preparation of pH 6.5 samples: The pH 6.5 samples of the CNP compounds were prepared by dissolving the freeze dried peptide in water. While stirring, a part of the peptide solution was transferred to a buffer consisting of 41 mM sodium phosphate and 118 mg/mL glycerol, pH 7.5-8.0, followed by addition of diluted sodium hydroxide followed by another part of the peptide solution and further addition of diluted sodium hydroxide. This procedure was repeated until all of the peptide solution had been added where a nominal concentration of at least 4000-5000 nmol/mL had been reached and the buffer composition was 8 mM sodium phosphate, 23 mg/mL glycerol. The pH of the samples were measured and adjusted to pH 6.5 and the samples were allowed to equilibrate at room temperature until next day if not fully dissolved.
Procedure: Samples at pH 4.0 were prepared as described above and the compound concentration in the supernatant was determined using CAD (Method F, CAD02).
Samples at pH 6.5 were prepared as described above and peptide concentration in the supernatant was determined by CAD (Method F, CAD02).

Structure (SMILES) | solubility [mM]
CC[C@H](C)[C@@H]1NC(=O)[C@H](CCCNC(=N)N)NC(=O)[C@H](CC(=O)O)NC(=O)[C@H](CC(C)C)NC(=O)[C@@H]2CCCN2C(=O)[C@H](CC(C)C)NC(=O)CNC(=O)[C@H](Cc2ccccc2)NC(=O)[C@@H](NC(=O)CNC(=O)[C@H](CO)NC(=O)[C@H](CO)NC(=O)[C@@H](NC(=O)CNC(=O)[C@@H](NC(=O)[C@H](Cc2c[nH]cn2)NC(=O)[C@H](CCC(N)=O)NC(=O)[C@H](C)NC(=O)CNC(=O)[C@H](Cc2c[nH]cn2)NC(=O)[C@H](Cc2ccc(O)cc2)NC(=O)[C@H](CCCCN)NC(=O)[C@H](CCCNC(=N)N)NC(=O)[C@H](C)NC(=O)COCCOCCNC(=O)COCCOCCNC(=O)CC[C@H](NC(=O)CCCCCCCCCCCCCCCCC(=O)O)C(=O)O)[C@@H](C)O)C(C)C)CSSC[C@@H](C(=O)O)NC(=O)CNC(=O)[C@H](CC(C)C)NC(=O)CNC(=O)[C@H](CO)NC(=O)[C@H](CC(C)C)NC(=O)[C@H](CO)NC(=O)CNC1=O [compound 1351] ({C18 diacid-γGlu-AEEA-AEEA}-ARKYHGAQHTGVSSGCFGLPLDRIGSLSGLGC-OH; disulfide 16-32) | 6.17 (≈ 24.4 mg/mL)

Same assay, conditions: 8 mM sodium phosphate, 23 mg/mL glycerol, pH 6.5, room temperature; read-out: Solubility at pH 6.5

Structure (SMILES) | solubility [mM]
CC[C@H](C)[C@@H]1NC(=O)[C@H](CCCNC(=N)N)NC(=O)[C@H](CC(=O)O)NC(=O)[C@H](CC(C)C)NC(=O)[C@@H]2CCCN2C(=O)[C@H](CC(C)C)NC(=O)CNC(=O)[C@H](Cc2ccccc2)NC(=O)[C@@H](NC(=O)CNC(=O)[C@H](CO)NC(=O)[C@H](CO)NC(=O)[C@@H](NC(=O)CNC(=O)[C@@H](NC(=O)[C@H](CCCCN)NC(=O)[C@H](CCC(N)=O)NC(=O)[C@H](C)NC(=O)CNC(=O)[C@H](Cc2c[nH]cn2)NC(=O)[C@H](Cc2ccc(O)cc2)NC(=O)COCCOCCNC(=O)COCCOCCNC(=O)CC[C@H](NC(=O)CCCCCCCCCCCCCCCCC(=O)O)C(=O)O)[C@@H](C)O)C(C)C)CSSC[C@@H](C(=O)O)NC(=O)CNC(=O)[C@H](CC(C)C)NC(=O)CNC(=O)[C@H](CO)NC(=O)[C@H](CC(C)C)NC(=O)[C@H](CO)NC(=O)CNC1=O [compound 1303] ({C18 diacid-γGlu-AEEA-AEEA}-YHGAQKTGVSSGCFGLPLDRIGSLSGLGC-OH; disulfide 13-29) | 4.84 (≈ 17.4 mg/mL)
CC[C@H](C)[C@@H]1NC(=O)[C@H](CCCNC(=N)N)NC(=O)[C@H](CC(=O)O)NC(=O)[C@H](CC(C)C)NC(=O)[C@@H]2CCCN2C(=O)[C@H](CC(C)C)NC(=O)CNC(=O)[C@H](Cc2ccccc2)NC(=O)[C@@H](NC(=O)CNC(=O)[C@H](CO)NC(=O)[C@H](CO)NC(=O)[C@H](CC(C)C)NC(=O)CNC(=O)[C@@H](NC(=O)[C@H](Cc2c[nH]cn2)NC(=O)[C@H](CCC(N)=O)NC(=O)[C@H](C)NC(=O)CNC(=O)[C@H](Cc2c[nH]cn2)NC(=O)[C@H](Cc2ccc(O)cc2)NC(=O)COCCOCCNC(=O)COCCOCCNC(=O)CC[C@H](NC(=O)CCCCCCCCCCCCCCCCC(=O)O)C(=O)O)[C@@H](C)O)CSSC[C@@H](C(=O)O)NC(=O)CNC(=O)[C@H](CC(C)C)NC(=O)CNC(=O)[C@H](CO)NC(=O)[C@H](CC(C)C)NC(=O)[C@H](CO)NC(=O)CNC1=O [compound 1304] ({C18 diacid-γGlu-AEEA-AEEA}-YHGAQHTGLSSGCFGLPLDRIGSLSGLGC-OH; disulfide 13-29) | 6.66 (≈ 24.1 mg/mL)
CC[C@H](C)[C@@H]1NC(=O)[C@H](CCCNC(=N)N)NC(=O)[C@H](CC(=O)O)NC(=O)[C@H](CC(C)C)NC(=O)[C@@H]2CCCN2C(=O)[C@H](CC(C)C)NC(=O)CNC(=O)[C@H](Cc2ccccc2)NC(=O)[C@@H](NC(=O)CNC(=O)[C@H](CO)NC(=O)[C@H](CO)NC(=O)[C@H](CC(C)C)NC(=O)CNC(=O)[C@H](CCCCN)NC(=O)[C@H](CCCCN)NC(=O)[C@H](CCC(N)=O)NC(=O)[C@H](C)NC(=O)CNC(=O)[C@H](Cc2c[nH]cn2)NC(=O)[C@H](CCC(=O)O)NC(=O)COCCOCCNC(=O)COCCOCCNC(=O)CC[C@H](NC(=O)CCCCCCCCCCCCCCCCC(=O)O)C(=O)O)CSSC[C@@H](C(=O)O)NC(=O)CNC(=O)[C@H](CC(C)C)NC(=O)CNC(=O)[C@H](CO)NC(=O)[C@H](CC(C)C)NC(=O)[C@H](CO)NC(=O)CNC1=O [compound 1310] ({C18 diacid-γGlu-AEEA-AEEA}-EHGAQKKGLSSGCFGLPLDRIGSLSGLGC-OH; disulfide 13-29) | 7.61 (≈ 27.4 mg/mL)
CC[C@H](C)[C@@H]1NC(=O)[C@H](CCCNC(=N)N)NC(=O)[C@H](CC(=O)O)NC(=O)[C@H](CC(C)C)NC(=O)[C@@H]2CCCN2C(=O)[C@H](CC(C)C)NC(=O)CNC(=O)[C@H](Cc2ccccc2)NC(=O)[C@@H](NC(=O)CNC(=O)[C@H](CO)NC(=O)[C@H](CO)NC(=O)[C@@H](NC(=O)CNC(=O)[C@@H](NC(=O)[C@H](CCCCN)NC(=O)[C@H](CCC(N)=O)NC(=O)[C@H](C)NC(=O)CNC(=O)[C@H](Cc2c[nH]cn2)NC(=O)[C@H](Cc2ccc(O)cc2)NC(=O)COCCOCCNC(=O)COCCOCCNC(=O)COCCOCCNC(=O)CC[C@H](NC(=O)CCCCCCCCCCCCCCCCC(=O)O)C(=O)O)[C@@H](C)O)C(C)C)CSSC[C@@H](C(=O)O)NC(=O)CNC(=O)[C@H](CC(C)C)NC(=O)CNC(=O)[C@H](CO)NC(=O)[C@H](CC(C)C)NC(=O)[C@H](CO)NC(=O)CNC1=O [compound 1352] ({C18 diacid-γGlu-AEEA-AEEA-AEEA}-YHGAQKTGVSSGCFGLPLDRIGSLSGLGC-OH; disulfide 13-29) | 7.73 (≈ 28.9 mg/mL)
CC[C@H](C)[C@@H]1NC(=O)[C@H](CCCNC(=N)N)NC(=O)[C@H](CC(=O)O)NC(=O)[C@H](CC(C)C)NC(=O)[C@@H]2CCCN2C(=O)[C@H](CC(C)C)NC(=O)CNC(=O)[C@H](Cc2ccccc2)NC(=O)[C@@H](NC(=O)CNC(=O)[C@H](CO)NC(=O)[C@H](CO)NC(=O)[C@@H](NC(=O)CNC(=O)[C@@H](NC(=O)[C@H](CCCCN)NC(=O)[C@H](CCC(N)=O)NC(=O)[C@H](C)NC(=O)CNC(=O)[C@H](Cc2c[nH]cn2)NC(=O)[C@H](Cc2ccc(O)cc2)NC(=O)[C@H](CCCCN)NC(=O)[C@H](CCCNC(=N)N)NC(=O)[C@H](C)NC(=O)COCCOCCNC(=O)COCCOCCNC(=O)CC[C@H](NC(=O)CC[C@H](NC(=O)CCCCCCCCCCCCCCCCC(=O)O)C(=O)O)C(=O)O)[C@@H](C)O)C(C)C)CSSC[C@@H](C(=O)O)NC(=O)CNC(=O)[C@H](CC(C)C)NC(=O)CNC(=O)[C@H](CO)NC(=O)[C@H](CC(C)C)NC(=O)[C@H](CO)NC(=O)CNC1=O [compound 1354] ({C18 diacid-γGlu-γGlu-AEEA-AEEA}-ARKYHGAQKTGVSSGCFGLPLDRIGSLSGLGC-OH; disulfide 16-32) | 0.44 (≈ 1.8 mg/mL)
CC[C@H](C)[C@@H]1NC(=O)[C@H](CCCNC(=N)N)NC(=O)[C@H](CC(=O)O)NC(=O)[C@H](CC(C)C)NC(=O)[C@@H]2CCCN2C(=O)[C@H](CC(C)C)NC(=O)CNC(=O)[C@H](Cc2ccccc2)NC(=O)[C@@H](NC(=O)CNC(=O)[C@H](CCCCN)NC(=O)[C@H](CO)NC(=O)[C@H](CC(C)C)NC(=O)CNC(=O)[C@H](CCCCN)NC(=O)[C@H](CCCCN)NC(=O)[C@H](CCC(N)=O)NC(=O)[C@H](C)NC(=O)CNC(=O)[C@H](CCC(=O)O)NC(=O)[C@H](Cc2ccc(O)cc2)NC(=O)COCCOCCNC(=O)COCCOCCNC(=O)COCCOCCNC(=O)COCCOCCNC(=O)CC[C@H](NC(=O)CCCCCCCCCCCCCCCCC(=O)O)C(=O)O)CSSC[C@@H](C(=O)O)NC(=O)CNC(=O)[C@H](CC(C)C)NC(=O)CNC(=O)[C@H](CO)NC(=O)[C@H](CC(C)C)NC(=O)[C@H](CO)NC(=O)CNC1=O [compound 1375] ({C18 diacid-γGlu-AEEA-AEEA-AEEA-AEEA}-YEGAQKKGLSKGCFGLPLDRIGSLSGLGC-OH; disulfide 13-29; C-terminus assumed) | 3.13 (≈ 12.4 mg/mL)
CC[C@H](C)[C@@H]1NC(=O)[C@H](CCCNC(=N)N)NC(=O)[C@H](CC(=O)O)NC(=O)[C@H](CC(C)C)NC(=O)[C@@H]2CCCN2C(=O)[C@H](CC(C)C)NC(=O)CNC(=O)[C@H](Cc2ccccc2)NC(=O)[C@@H](NC(=O)CNC(=O)[C@H](CCCCN)NC(=O)[C@H](CO)NC(=O)CNC(=O)CNC(=O)[C@H](CCCCN)NC(=O)[C@H](CCCCN)NC(=O)[C@H](CCC(N)=O)NC(=O)[C@H](C)NC(=O)CNC(=O)[C@H](CCC(=O)O)NC(=O)[C@H](Cc2ccc(O)cc2)NC(=O)COCCOCCNC(=O)COCCOCCNC(=O)CC[C@H](NC(=O)CCCCCCCCCCCCCCCCC(=O)O)C(=O)O)CSSC[C@@H](C(=O)O)NC(=O)CNC(=O)[C@H](CC(C)C)NC(=O)CNC(=O)[C@H](CO)NC(=O)[C@H](CC(C)C)NC(=O)[C@H](CO)NC(=O)CNC1=O [compound 1377] ({C18 diacid-γGlu-AEEA-AEEA}-YEGAQKKGGSKGCFGLPLDRIGSLSGLGC-OH; disulfide 13-29) | 0.443 (≈ 1.6 mg/mL)

— US20240209028A1, “CNP COMPOUNDS” (priority 2022, published 2024)
